A short description of test [1]: microbiological titre of erythromycin crystals. The class given is cell-based. The following applies: dried erythromycin crystals recrystallized from dichloromethane-containing solvent.
For test [2] the following is noted: erythromycin crystals of CN1513864A, recrystallized from acetone and water; cited from earlier work.

Where two headings read alike, the source gives them in different places.

Take erythromycin [Example 3]: the microbiological titre in test [1] is 941 μ/mg.

Consider erythromycin [Example 5], for which the microbiological titre in test [1] was 943 μ/mg.

Take erythromycin [Example 2]: in test [1], the microbiological titre worked out at 955 μ/mg.

erythromycin [Example 1] came in with a microbiological titre in test [1] of 948 μ/mg.

Regarding erythromycin [erythromycin crystals], the microbiological titre result in test [2] is “less than 930 μ/mg”.

erythromycin [Example 4] returned a microbiological titre in test [1] of 946 μ/mg.

The record behind these values is patent publication US8436154B2, “Crystallizing method of erythromycin” (Sunshine Lake Pharma Co., Ltd., priority 2008, dated 2013).
